How the values were obtained:
[1] = target: T1, RNR (RNR1:RNR2 1:1) (Homo sapiens, UniProt P23921); experiment: RNR enzyme activity, rapid-fire mass spectrometry (RF/MS) assay; assay type: biochemical; settings: [RNR] 50 nM, 1:1 RNR1:RNR2; CDP 5 μM; ATP 1 mM; 37° C., 45 min; compounds screened up to 50 μM
T1 sequence (P23921 1-792): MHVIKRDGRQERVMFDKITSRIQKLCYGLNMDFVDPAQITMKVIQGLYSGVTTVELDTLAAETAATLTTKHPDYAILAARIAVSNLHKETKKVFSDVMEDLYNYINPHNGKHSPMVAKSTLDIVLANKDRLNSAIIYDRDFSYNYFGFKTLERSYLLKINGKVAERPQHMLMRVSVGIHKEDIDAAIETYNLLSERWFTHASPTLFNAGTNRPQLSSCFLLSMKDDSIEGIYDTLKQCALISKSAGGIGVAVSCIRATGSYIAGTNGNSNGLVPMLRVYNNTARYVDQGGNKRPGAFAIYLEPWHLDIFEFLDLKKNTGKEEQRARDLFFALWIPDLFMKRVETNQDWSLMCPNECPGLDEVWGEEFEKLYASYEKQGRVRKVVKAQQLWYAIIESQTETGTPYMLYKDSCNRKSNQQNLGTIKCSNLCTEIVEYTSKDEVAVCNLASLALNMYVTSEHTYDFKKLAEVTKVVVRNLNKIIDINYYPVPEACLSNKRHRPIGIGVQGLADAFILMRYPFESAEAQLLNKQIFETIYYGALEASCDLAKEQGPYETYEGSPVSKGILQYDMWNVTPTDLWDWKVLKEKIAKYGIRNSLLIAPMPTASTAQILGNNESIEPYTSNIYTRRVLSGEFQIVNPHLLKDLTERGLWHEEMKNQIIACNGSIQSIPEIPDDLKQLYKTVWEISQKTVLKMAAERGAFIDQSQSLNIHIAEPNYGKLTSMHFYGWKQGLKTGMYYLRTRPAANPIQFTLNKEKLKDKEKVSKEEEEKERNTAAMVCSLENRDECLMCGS
How it was run: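 Human RNR (50 nM final, RNR1:RNR2 1:1) pre-incubated 15 min at room temperature, then reacted 45 min at 37 °C with 5 μM CDP and 1 mM ATP, no NADPH. Reaction quenched with 6% HCOOH; product quantified by rapid-fire mass spectrometry.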

[2] = system: human hepatocytes; experiment: Human hepatocyte stability assay; assay type: in vitro ADME; settings: 0.5×10^6 viable cells/ml, time points 0.5 and 60 minutes
Protocol: 1. 10 mM stock solutions of test compounds and positive control were prepared in DMSO. Thawing medium and supplement incubation medium (serum-free) were placed in a 37° C. water bath for at least 15 minutes prior to use.
2. Stock solutions were diluted to 100 μM by combining 198 μL acetonitrile and 2 μL of 10 mM stock solution. Verapamil was use as positive control in the assay.
3. Vials of cryopreserved human hepatocytes were removed from storage, while ensuring that vials remain at cryogenic temperatures. The pressure was removed by loosening and re-tightening the cap. The vials were thawed in a 37° C. water bath with gentle shaking. Vials remained in the water bath until all ice crystals had dissolved and were no longer visible. Vials were sprayed with 70% ethanol before being transferred to a biosafety cabinet. Then the contents were poured into a 50 mL thawing medium conical tube. Vials were centrifuged at 100 g for 10 minutes at room temperature. Thawing medium was aspirated and hepatocytes were re-suspended with serum-free incubation medium to yield ˜1.5×10^6 cells/mL.
4. Cell viability and density were counted using Cellometer® Vision, and then cells were diluted with serum-free incubation medium to a working cell density of 0.5×10^6 viable cells/ml.
5. Aliquots of 198 μL hepatocytes were dispensed into each well of a 96-well non-coated plate. The plate was placed in the incubator on an orbital shaker at 500 rpm for approximately 10 minutes.
6. Aliquots of 2 μL of the 100 μM test compounds or verapamil were added into respective wells of the non-coated 96-well plate to start the reaction. This assay was performed in duplicate. The plate was incubated in the incubator on an orbital shaker at 500 rpm for the designed time points.
7.25 μL of contents were transferred and mixed with 5 volumes (125 μL) of cold acetonitrile with IS (100 nM alprazolam, 200 nM caffeine, 100 nM labetalol and 100 nM tolbutamide) to terminate the reaction at time points of 0.5 and 60 minutes. Samples were centrifuged for 30 minutes at 3,220 g. Then transfer 100 μL of the supernatant to new 96-well plates for analysis. Add 100 μL of distilled water to each sample and mix for analysis by LC-MS/MS.
All calculations were carried out using Microsoft Excel. Peak areas were determined from extracted ion chromatograms. The in vitro half-life (tin) of the parent compound was determined by regression analysis of the percent parent disappearance vs. time curve. • a. The in vitro half-life (in vitro tin) was determined from the slope value: in vitro t1/2=0.693/k • b. Conversion of the in vitro tin (in min) into the in vitro intrinsic clearance (in vitro CLint, in μL/min/10^6 cells) was done using the following equation: […]

[3] = system: pCHK1 (S345) in Colo320 DM cells; experiment: Alphalisa assay, detection of pCHK1 (S345) in Colo320 DM cells; assay type: cell-based, human; settings: Homo sapiens, COLO 320DM, compound overnight (approximately 16 hours)
How it was run: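 Phospho-CHK1 (S345) read by AlphaLisa SureFire in lysates of human colorectal Colo320 DM cells. Compound treatment ran overnight (~16 h, 37 °C, DMSO <0.5%) on cells seeded the day before.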

| SMILES | IC50 [1] | Clhep [2] | IC50 [3] |
| --- | --- | --- | --- |
| Cc1ccc(F)c([C@@H](C)[C@@H](c2n[nH]c(=O)o2)N2CNc3cc(Cl)ccc3S2(=O)=O)c1C [Example 8, 5-((1S,2R)-1-(6-chloro-1,1-dioxido-3,4-dihydro-2H-benzo[e][1,2,4]thiadiazin-2-yl)-2-(6-fluoro-2,3-dimethylphenyl)propyl)-1,3,4-oxadiazol-2 (3H)-one] | 0.02 to 0.1 µM | B (10 ml/min/kg < Clhep ≤ 20 ml/min/kg) | ≤ 1 µM |
| Cc1ccc(F)c([C@@H](C)[C@@H](c2n[nH]c(=O)o2)N2CN(C)c3nc(Cl)ccc3S2(=O)=O)c1C [Example 3, 5-((1S,2R)-1-(6-chloro-4-methyl-1,1-dioxido-3,4-dihydro-2H-pyrido[2,3-e][1,2,4]thiadiazin-2-yl)-2-(6-fluoro-2,3-dimethylphenyl)propyl)-1,3,4-oxadiazol-2 (3H)-one] | < 0.02 µM | B (10 ml/min/kg < Clhep ≤ 20 ml/min/kg) | ≤ 1 µM |
| Cc1ccc(F)c([C@@H](C)[C@@H](c2n[nH]c(=O)o2)N2CN(O)c3cc(Cl)ccc3S2(=O)=O)c1C [Example 120, 5-((1S,2R)-1-(6-chloro-4-hydroxy-1,1-dioxido-3,4-dihydro-2H-benzo[e][1,2,4]thiadiazin-2-yl)-2-(6-fluoro-2,3-dimethylphenyl)propyl)-1,3,4-oxadiazol-2 (3H)-one] | – | B (10 ml/min/kg < Clhep ≤ 20 ml/min/kg) | 1 to 5 µM |
| Cc1ccc(F)c([C@@H](C)[C@@H](c2n[nH]c(=O)o2)N2CN([C@H](C)CO)c3cc(Cl)ccc3S2(=O)=O)c1C [Example 117, 5-((1S,2R)-1-(6-chloro-4-((R)-1-hydroxypropan-2-yl)-1,1-dioxido-3,4-dihydro-2H-benzo[e][1,2,4]thiadiazin-2-yl)-2-(6-fluoro-2,3-dimethylphenyl)propyl)-1,3,4-oxadiazol-2 (3H)-one] | – | B (10 ml/min/kg < Clhep ≤ 20 ml/min/kg) | 1 to 5 µM |
| Cc1ccc(F)c([C@@H](C)[C@@H](c2n[nH]c(=O)o2)N2CCOc3cc(Cl)ccc3S2(=O)=O)c1C [Example 2, 5-((1S,2R)-1-(7-chloro-1,1-dioxido-3,4-dihydro-2H-benzo[b][1,4,5]oxathiazepin-2-yl)-2-(6-fluoro-2,3-dimethylphenyl)propyl)-1,3,4-oxadiazol-2(3H)-one] | < 0.02 µM | A (0 ml/min/kg ≤ Clhep ≤ 10 ml/min/kg) | 1 to 5 µM |
| Cc1ccc(F)c([C@@H](C)[C@@H](c2n[nH]c(=O)o2)N2CN(C3CC(=O)C3)c3cc(Cl)ccc3S2(=O)=O)c1C [Example 118, 5-((1S,2R)-1-(6-chloro-1,1-dioxido-4-(3-oxocyclobutyl)-3,4-dihydro-2H-benzo[e][1,2,4]thiadiazin-2-yl)-2-(6-fluoro-2,3-dimethylphenyl)propyl)-1,3,4-oxadiazol-2 (3H)-one] | – | B (10 ml/min/kg < Clhep ≤ 20 ml/min/kg) | ≤ 1 µM |
| CC(=O)c1cc(Cl)cc2c1S(=O)(=O)N([C@H](c1n[nH]c(=O)o1)[C@H](C)c1c(F)ccc(C)c1C)CN2C [Example 75, 5-((1S,2R)-1-(8-acetyl-6-chloro-4-methyl-1,1-dioxido-3,4-dihydro-2H-benzo[e][1,2,4]thiadiazin-2-yl)-2-(6-fluoro-2,3-dimethylphenyl)propyl)-1,3,4-oxadiazol-2 (3H)-one] | < 0.02 µM | B (10 ml/min/kg < Clhep ≤ 20 ml/min/kg) | ≤ 1 µM |
| Cc1ccc(F)c([C@@H](C)[C@@H](c2n[nH]c(=O)o2)N2CN([C@H]3CCOC(C)(C)C3)c3cc(Cl)ccc3S2(=O)=O)c1C (single isomer, unassigned) [Example 90] | – | B (10 ml/min/kg < Clhep ≤ 20 ml/min/kg) | ≤ 1 µM |
| Cc1ccc(F)c([C@@H](C)[C@@H](c2n[nH]c(=O)o2)N2CN([C@@H](C)CO)c3cc(Cl)ccc3S2(=O)=O)c1C [Example 121, 5-((1S,2R)-1-(6-chloro-4-((S)-1-hydroxypropan-2-yl)-1,1-dioxido-3,4-dihydro-2H-benzo[e][1,2,4]thiadiazin-2-yl)-2-(6-fluoro-2,3-dimethylphenyl)propyl)-1,3,4-oxadiazol-2 (3H)-one] | – | B (10 ml/min/kg < Clhep ≤ 20 ml/min/kg) | ≤ 1 µM |
| Cc1ccc(F)c([C@@H](C)[C@@H](c2n[nH]c(=O)o2)N2CN(CCO)c3cc(Cl)ccc3S2(=O)=O)c1C [Example 50, 5-((1S,2R)-1-(6-chloro-4-(2-hydroxyethyl)-1,1-dioxido-3,4-dihydro-2H-benzo[e][1,2,4]thiadiazin-2-yl)-2-(6-fluoro-2,3-dimethylphenyl)propyl)-1,3,4-oxadiazol-2 (3H)-one] | < 0.02 µM | A (0 ml/min/kg ≤ Clhep ≤ 10 ml/min/kg) | ≤ 1 µM |
| Cc1ccc(F)c([C@@H](C)[C@@H](c2n[nH]c(=O)o2)N2CN(C3CCOC(C)(C)C3)c3cc(Cl)ccc3S2(=O)=O)c1C (single isomer, unassigned) [Example 89] | – | B (10 ml/min/kg < Clhep ≤ 20 ml/min/kg) | ≤ 1 µM |
| CON1CN([C@H](c2n[nH]c(=O)o2)[C@H](C)c2c(F)ccc(C)c2C)S(=O)(=O)c2ccc(Cl)cc21 [Example 116, 5-((1S,2R)-1-(6-chloro-4-methoxy-1,1-dioxido-3,4-dihydro-2H-benzo[e][1,2,4]thiadiazin-2-yl)-2-(6-fluoro-2,3-dimethylphenyl)propyl)-1,3,4-oxadiazol-2 (3H)-one] | – | B (10 ml/min/kg < Clhep ≤ 20 ml/min/kg) | ≤ 1 µM |
| Cc1ccc(F)c([C@@H](C)[C@@H](c2n[nH]c(=O)o2)N2CN(CCN3CCCC3)c3nc(Cl)ccc3S2(=O)=O)c1C [Example 92, 5-((1S,2R)-1-(6-chloro-1,1-dioxido-4-(2-(pyrrolidin-1-yl)ethyl)-3,4-dihydro-2H-pyrido[2,3-e][1,2,4]thiadiazin-2-yl)-2-(6-fluoro-2,3-dimethylphenyl)propyl)-1,3,4-oxadiazol-2 (3H)-one] | – | A (0 ml/min/kg ≤ Clhep ≤ 10 ml/min/kg) | 1 to 5 µM |
| Cc1ccc(F)c([C@@H](C)[C@@H](c2n[nH]c(=O)o2)N2CN(CCN3CCOCC3)c3nc(Cl)ccc3S2(=O)=O)c1C [Example 93, 5-((1S,2R)-1-(6-chloro-4-(2-morpholinoethyl)-1,1-dioxido-3,4-dihydro-2H-pyrido[2,3-e][1,2,4]thiadiazin-2-yl)-2-(6-fluoro-2,3-dimethylphenyl)propyl)-1,3,4-oxadiazol-2 (3H)-one] | – | A (0 ml/min/kg ≤ Clhep ≤ 10 ml/min/kg) | ≤ 1 µM |
